The text below walks through data of patent US9580390B2, “Indazole compounds as kinase inhibitors and method of treating cancer with same” (University Health Network, priority 2011, dated 2017).

One test concerns Breast cancer cells. Briefly: Cancer cell line growth inhibition (SRB assay). It counts as cell-based. Conditions: Homo sapiens; MDA-MB-468; read-out: Cancer Cell Line GI50 Range MDA-MB-468. Background: The SRB assay estimates cell density from bound dye.
Test [1] concerns colon cancer cells (HCT116). Nature of the test: Cancer cell line growth inhibition (SRB assay). It counts as cell-based. The settings on record: Homo sapiens, HCT-116; read-out: Cancer Cell Line GI50 Range HCT116.
The next test deals with T1, human TTK (Homo sapiens, UniProt P33981).
T1 construct: amino terminal GST fusion of full length human TTK; purchased Invitrogen
T1 sequence (P33981 1-857): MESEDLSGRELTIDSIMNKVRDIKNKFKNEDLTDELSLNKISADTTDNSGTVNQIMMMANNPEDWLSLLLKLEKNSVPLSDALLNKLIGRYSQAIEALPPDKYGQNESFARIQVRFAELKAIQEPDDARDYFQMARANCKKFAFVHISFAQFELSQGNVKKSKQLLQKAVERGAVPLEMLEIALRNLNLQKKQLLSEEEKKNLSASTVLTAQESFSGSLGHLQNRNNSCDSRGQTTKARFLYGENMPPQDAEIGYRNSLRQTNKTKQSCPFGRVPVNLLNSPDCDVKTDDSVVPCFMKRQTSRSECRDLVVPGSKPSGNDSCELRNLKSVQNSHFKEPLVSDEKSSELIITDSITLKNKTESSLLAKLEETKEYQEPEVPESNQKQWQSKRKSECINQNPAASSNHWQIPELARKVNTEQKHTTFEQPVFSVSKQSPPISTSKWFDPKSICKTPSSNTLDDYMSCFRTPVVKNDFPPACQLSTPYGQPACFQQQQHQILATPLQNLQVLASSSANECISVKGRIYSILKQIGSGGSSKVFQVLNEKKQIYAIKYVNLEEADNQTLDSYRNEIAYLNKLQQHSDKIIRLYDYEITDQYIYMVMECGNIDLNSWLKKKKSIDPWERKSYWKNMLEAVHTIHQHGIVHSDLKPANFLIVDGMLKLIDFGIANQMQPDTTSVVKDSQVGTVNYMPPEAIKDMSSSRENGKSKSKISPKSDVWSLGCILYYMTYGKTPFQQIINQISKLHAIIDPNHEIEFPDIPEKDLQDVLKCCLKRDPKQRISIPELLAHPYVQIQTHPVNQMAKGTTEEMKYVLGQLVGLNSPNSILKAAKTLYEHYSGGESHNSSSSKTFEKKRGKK
Briefly: TTK inhibition assay (indirect ELISA). The format is biochemical. Conditions: read-out: TTK IC50 Range. For orientation: In an ELISA, binding on a coated surface is turned into a signal by an enzyme label.

For test [2], the system named is ovarian cancer cells (PA-1). Briefly: Cancer cell line growth inhibition (SRB assay). Conditions: Homo sapiens, PA-1; read-out: Cancer Cell Line GI50 Range PA-1. It counts as cell-based.
Another test has as its system TICs (Colon 12). Nature of the test: Colon tumor-initiating cell growth inhibition (Alamar Blue). It counts as cell-based. Conditions: 216 h; Colon 12 TICs, 9 days; read-out: Tumor Initiating Cell GI50 Range Colon 12. For orientation: Alamar Blue is a resazurin reagent that responds to reducing activity.

Take `O=C(N[C@H](c1ccccn1)C1CC1)c1ccc2[nH]nc(-c3ccc(N4[C@@H]5CC[C@H]4COC5)cc3)c2c1` [Example A414, 3-(4-((1R,5S)-3-oxa-8-azabicyclo[3.2.1]octan-8-yl)phenyl)-N-((S)-cyclopropyl(pyridin-2-yl)methyl)-1H-indazole-5-carboxamide]: the concentration for 50% growth inhibition (GI50) (in the test on Breast cancer cells; in test [1]; in test [2]; in the test on TICs (Colon 12)) was < 100 nM throughout. In addition, the IC50 (in general, the concentration that gives 50% inhibition) at human TTK was < 100 nM.
With `O=C(NCC1(N2CCOCC2)CCCCC1)c1ccc2[nH]nc(-c3ccc(N4[C@@H]5CC[C@H]4COC5)cc3)c2c1` [Example A501, 3-(4-((1R,5S)-3-oxa-8-azabicyclo[3.2.1]octan-8-yl)phenyl)-N-((1-morpholinocyclohexyl)methyl)-1H-indazole-5-carboxamide], the GI50 (in the test on Breast cancer cells; in test [1]; in test [2]; with TICs (Colon 12)) was < 100 nM throughout. For the same molecule, on human TTK, the half-inhibitory concentration (IC50) was < 100 nM.
Regarding `CC(C)[C@H](NC(=O)c1ccc2[nH]nc(-c3ccc(N4CC(N5CCOCC5)C4)cc3)c2c1)c1ccccc1Cl` [Example A313, (S)-N-(1-(2-chlorophenyl)-2-methylpropyl)-3-(4-(3-morpholinoazetidin-1-yl)phenyl)-1H-indazole-5-carboxamide], the GI50 (in the test with Breast cancer cells; in test [1]; in test [2]; in the test on TICs (Colon 12)) was < 100 nM in each case. Besides, the IC50 at human TTK was < 100 nM.
Consider `O=C(N[C@@H](c1ncccn1)C1CCCC1)c1ccc2[nH]nc(-c3ccc(N4C5CCC4CC(O)C5)cc3)c2c1` (stereo partly drawn) [Example A366, N-((R)-cyclopentyl(pyrimidin-2-yl)methyl)-3-(4-((1R,3R,5S)-3-hydroxy-8-azabicyclo[3.2.1]octan-8-yl)phenyl)-1H-indazole-5-carboxamide], for which the GI50 (with Breast cancer cells; in test [1]; in test [2]; in the test on TICs (Colon 12)) was < 100 nM in each case. Besides, the IC50 at human TTK is < 100 nM.
Turning to `O=C(N[C@H](c1ncccn1)C1CCCC1)c1ccc2[nH]nc(-c3ccc(N4C5CCC4CC(O)C5)cc3)c2c1` (stereo partly drawn) [Example A367, N-((S)-cyclopentyl(pyrimidin-2-yl)methyl)-3-(4-((1R,3S,5S)-3-hydroxy-8-azabicyclo[3.2.1]octan-8-yl)phenyl)-1H-indazole-5-carboxamide], the concentration for 50% growth inhibition (GI50) (with Breast cancer cells; in test [1]; in test [2]; in the test with TICs (Colon 12)) was < 100 nM throughout. In addition, the IC50 at human TTK is < 100 nM.
With `O=C(N[C@H](c1ccccn1)C1CCCC1)c1ccc2[nH]nc(-c3ccc(N4CC(N5CCOCC5)C4)cc3)c2c1` [Example A314], the 50% growth inhibitory concentration (GI50) (with Breast cancer cells; in test [1]; in test [2]; with TICs (Colon 12)) was < 100 nM each time. Moreover, the IC50 on human TTK is < 100 nM.
Take `O=C(N[C@@H](c1ccccn1)C1CCCC1)c1ccc2[nH]nc(-c3ccc(N4C5CCC4CC(O)C5)cc3)c2c1` (stereo partly drawn) [Example A364, N-((R)-cyclopentyl(pyridin-2-yl)methyl)-3-(4-((1R,3R,5S)-3-hydroxy-8-azabicyclo[3.2.1]octan-8-yl)phenyl)-1H-indazole-5-carboxamide]: the GI50 (in the test on Breast cancer cells; in test [1]; in test [2]; with TICs (Colon 12)) was < 100 nM each time. In addition, the IC50 on human TTK was < 100 nM.
Take `CCC(CC)C(NC(=O)c1ccc2[nH]nc(-c3ccc(O[C@H]4C[C@H]5CC[C@@H](C4)N5C4COC4)cc3)c2c1)c1ccccn1` (stereo partly drawn) [Example A341, N-(2-ethyl-1-(pyridin-2-yl)butyl)-3-(4-(((1R,3R,5S)-8-(oxetan-3-yl)-8-azabicyclo[3.2.1]octan-3-yl)oxy)phenyl)-1H-indazole-5-carboxamide]: the GI50 (with Breast cancer cells; in test [1]; in test [2]) was 100 to 500 nM each time. In addition, the 50% inhibitory concentration (IC50) on human TTK was < 100 nM.
Regarding `O=C(N[C@H](c1ccccn1)C1CCCC1)c1ccc2[nH]nc(-c3ccc(OC4CCN(C[C@@H](O)C(F)(F)F)CC4)cc3)c2c1` [Example A229, N((S)-cyclopentyl(pyridin-2-yl)methyl)-3-(4-((1-((R)-3,3,3-trifluoro-2-hydroxypropyl)piperidin-4-yl)oxy)phenyl)-1H-indazole-5-carboxamide], the 50% growth inhibitory concentration (GI50) (in the test with Breast cancer cells; in test [1]; in test [2]) was 100 to 500 nM in each case. Besides, the IC50 on human TTK is < 100 nM.
For the molecule `O=C(N[C@H](c1ccsc1)C1CC1)c1ccc2[nH]nc(-c3ccc(N4C5CCC4CC(O)C5)cc3)c2c1` (stereo partly drawn) [Example A365, N-((S)-cyclopropyl(thiophen-3-yl)methyl)-3-(4-((1R,3S,5S)-3-hydroxy-8-azabicyclo[3.2.1]octan-8-yl)phenyl)-1H-indazole-5-carboxamide], the GI50 (with Breast cancer cells; in test [1]; in test [2]) was < 100 nM throughout. In addition, on human TTK, the IC50 is < 100 nM.
`CC(C)C(NC(=O)c1ccc2[nH]nc(-c3ccc(O[C@H]4C[C@H]5CC[C@@H](C4)N5C)cc3)c2c1)c1ccccc1F` (stereo partly drawn) [Example A281, N-(1-(2-fluorophenyl)-2-methylpropyl)-3-(4-(((1R,3R,5S)-8-methyl-8-azabicyclo[3.2.1]octan-3-yl)oxy)phenyl)-1H-indazole-5-carboxamide]: the figures for the GI50 (with Breast cancer cells; in test [1]; in test [2]) were 100 to 500 nM, < 100 nM and < 100 nM, respectively. On human TTK, the IC50 is < 100 nM.
Take `CN1CCC2(CC1)CC(=O)c1cc(-c3n[nH]c4ccc(C(=O)N[C@H](c5ccccc5)C5CC5)cc34)ccc1O2` [Example A251, (S)-N-(cyclopropyl(phenyl)methyl)-3-(1′-methyl-4-oxospiro[chroman-2,4′-piperidin]-6-yl)-1H-indazole-5-carboxamide]: the GI50 (in the test with Breast cancer cells; in test [1]; in test [2]) was 100 to 500 nM each time. For the same molecule, the IC50 at human TTK is < 100 nM.
In the case of `O=C(NCC1(N2CCOCC2)CCOCC1)c1ccc2[nH]nc(-c3ccc(N4[C@@H]5CC[C@H]4C[C@@H](O)C5)cc3)c2c1` [Example A493, 3-(4-((1R,3R,5S)-3-hydroxy-8-azabicyclo[3.2.1]octan-8-yl)phenyl)-N-((4-morpholinotetrahydro-2H-pyran-4-yl)methyl)-1H-indazoIe-5-carboxamide], the GI50 (commonly the concentration at which growth is held to half of that of the control) is > 500 nM with Breast cancer cells, 100 to 500 nM in test [1] and 100 to 500 nM in test [2]. Moreover, the IC50 at human TTK is < 100 nM.
Take `CC(C)C[C@H](NC(=O)c1ccc2[nH]nc(-c3ccc(N4C5CCCC4CC(O)C5)cc3)c2c1)c1ccccn1` (stereo partly drawn) [Example A304, 3-(4-((1R,3S,5S)-3-hydroxy-9-azabicyclo[3.3.1]nonan-9-yl)phenyl)-N-((S)-3-methyl-1-(pyridin-2-yl)butyl)-1H-indazole-5-carboxamide]: the GI50 (in the test on Breast cancer cells; in test [1]; in test [2]) was 100 to 500 nM in each case. Also, the IC50 on human TTK is < 100 nM.
